What was measured:
[1] = test system: P. multocida 46572; experiment: In vivo mouse lung infection challenge model (murine efficacy); conditions: mouse, in vivo
Method: The challenge organism was P. multocida 46572. Target challenge concentration was 5×10^2 CFU/mouse. Isolated colonies from overnight growth (37° C. with 5% CO2) on trypticase soy agar (TSA II) blood plates were transferred to room temperature Brain Heart Infusion Broth (BHIB). The broth culture was incubated 3.5-4 hours to approximately mid-log phase of growth, as measured by forward light scatter at 600 nm (OD600, 0.200). The culture was centrifuged to collect the bacterial pellet. The pellet was re-suspended in BHIB and adjusted to provide an approximate concentration of 2.7 log^10 colony forming units (CFU) in 0.04 mL at the highest concentration. The challenge inoculum concentration was confirmed by serial dilutions of the inoculum for CFU enumeration. On Day −5, CD-1 female mice were received. Mice were given standard rodent diet and water ad libitum. On Day 0, bacterial inoculum (0.04 mL) was administered to each mouse (n=36) intranasally. Compounds of the invention were dosed at 20 mg/kg (0.1 mL) in a buffered (˜pH 5.4) propylene glycol, monothioglycerol and water solution by subcutaneous injection. Animals were observed from Days 1-10. The study was terminated on Day 10. In addition, some treatment groups were sampled at 6, 24, and 48 hours post bacterial challenge for RNA sequence analysis of lung tissue.
The murine efficacy model (P. multocida challenge) was optimized, and the treatment group size was powered to be able to observe statistically significant improvement of survival to expected ranges for immunomodulatory compounds. The experimental design was a randomized complete block design. Mice were individually identified and treatment groups comingled within a cage, with every treatment group equally represented across cages. Mortality was the primary variable. Mortality data was analyzed using a generalized mixed model with fixed effect of treatment and random effect of block. Survival time was also analyzed using the SAS PHREG (survival analysis) procedure to examine whether there were significant differences between treatment groups and the control group. Numerous compounds of the invention and M9 (positive control) were tested in this model at a dose of 20 mg/kg (Table 3). Typical percent survival for no treatment control is in the range of 0-20% based on study to study variation in challenge inoculum and rate of infection. […] Mouse survival for M9 was about 90-100%, further supporting its residual antibacterial properties against the bacterial strain. Harmonized survival accounts for % survival relative to vehicle (“−” control) and M9 (“+” control)) survival data (Table 3).

[2] = test system: bovine alveolar macrophages; experiment: Phospholipidosis assay (HCS LipidTox); type: cell-based; conditions: Bos taurus, Macrophage
Source text: The second immunomodulation in vitro assay evaluated the potential for phospholipidosis with the compounds of the invention in bovine alveolar macrophages. The phospholipidosis assay is being used as a convenient method for the evaluation of cellular uptake. This assay utilized Invitrogen's commercially available HCS LipidTox detection kit with an Incucyte real time fluorescence reader to observe variations in EC50 and phospholipidosis profiles based on compound concentrations (Table 2). […] Murine intraperitoneal macrophages were also used in the same assay to evaluate species variability for potential correlation with mouse efficacy results. The combination of the bovine whole blood assay and phospholipidosis assays enabled rank ordering for progression into in vivo testing in the murine challenge model.

[3] = test system: IL-6; experiment: Bovine whole blood assay, IL-6; type: cell-based; conditions: Bos taurus, fresh whole bovine blood, LPS 1 μg/mL
Method: (§1) (protected from light) for 30 minutes.

[4] = test system: IL-1β; experiment: Bovine whole blood assay, IL-1β; type: cell-based; conditions: overstimulation of IL-1β, perceived cellular toxicity concentration;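 further: compound concentration at which rising IL-1β release signals cytotoxicity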
Method: as §1

`CCCNC[C@]1(O)[C@H](C)O[C@@H](O[C@H]2[C@H](C)[C@@H](O[C@@H]3O[C@H](C)C[C@H](NC)[C@H]3O)[C@](C)(O)C[C@@H](C)CN[C@H](C)[C@@H](O)[C@](C)(O)[C@@H](CC)OC(=O)[C@@H]2C)C[C@@]1(C)OC` [Example M9, (2R,3S,4R,5R,8R,10R,11R,12S,13S,14R)-2-ethyl-3,4,10-trihydroxy-13-(((2R,4R,5S,6S)-5-hydroxy-4-methoxy-4,6-dimethyl-5-((propylamino)methyl)-tetrahydro-2H-pyran-2-yl)oxy)-11-(((2S,3R,4S,6R)-3-hydroxy-6-methyl-4-(methylamino)tetrahydro-2H-pyran-2-yl)oxy)-3,5,8,10,12,14-hexamethyl-1-oxa-6-azacyclopentadecan-15-one] was tested, and the “clinical efficacy in P. multocida infection in mice” value [1] was “clinically efficacious”, the EC50 [2] was 53.7 µM and the IC50 [3] was > 250 µM. For the same compound, the “IL-1β OS of LPS” value [4] was > 500 µM.

From patent US12390440B2, “Immunomodulating trifluoromethyl-aminal azalides” (Zoetis Services LLC, priority 2020, dated 2025)
